For one test, the target named is BCL2 D111A (Homo sapiens, UniProt P10415, D111A). In words: TR-FRET competitive binding assay, BCL2 D111A. To be noted: Ki determined from IC50, read-out: TR_FRET EKI_Bcl2 D111A. In a few lines:
(§1)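 Competitive TR-FRET displacement of fluorescein-PUMA peptide (2 or 20 nM) from 0.5 nM terbium-labelled N-terminal Halo-fusion BCL2 (1-207, wild type or mutant) or BCLXL (2-196), expressed in E. coli. Buffer 50 mM Hepes pH 7.5, 150 mM NaCl, 5% DMSO; 2 h at 23°C. 520/495 nm ratio fitted over 11 points for IC50, converted to Ki.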

The next test deals with KMS-12-PE Bcl-2 WT. Put plainly: In vitro cytotoxicity CellTiter-Glo 48 h, KMS-12-PE Bcl-2 WT. It is filed as cell-based. The note with it: Homo sapiens, KMS-12-PE, C50 = concentration needed to reach 50% of the cellular viability. Put shortly:
(§2)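 Bcl-2 WT- and G101V-expressing KMS-12-PE cells; 48 h treatment at 37 °C, 5% CO2; CellTiter-Glo ATP luminescence; C50 from 11-point curves.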
In general terms: In ATP-based viability assays light output follows the ATP content of the culture.

The next test addresses BCL2 D103Y (Homo sapiens, UniProt P10415, D103Y). In words: TR-FRET competitive binding assay, BCL2 D103Y. The note with it: Ki determined from IC50, read-out: TR_FRET EKI_Bcl2 D103Y. In a few lines: as §1
For orientation: TR-FRET usually uses a lanthanide donor and a delayed reading to cut background.

A further test concerns the target BCLXL WT (Homo sapiens (Human), UniProt Q07817). Put plainly: TR-FRET competitive binding assay, BCLXL WT. The note with it: for pKi: BCLXL WT, Ki determined from IC50, read-out: TR_FRET EKI BclxL; for TR_FRET EKI BCLxL/WT selectivty ratio: ratio Ki BCLxL / Ki BCL2 WT. In a few lines: as §1
A further test has as its target BCL2 WT (Homo sapiens (Human), UniProt P10415). Put plainly: TR-FRET competitive binding assay, BCL2 WT. The note with it: Ki determined from IC50, read-out: TR_FRET EKI_Bcl2 WT. In a few lines: as §1
The target of another test is BCL2 F104I (Homo sapiens, UniProt P10415, F104I). In words: TR-FRET competitive binding assay, BCL2 F104I. To be noted: Ki determined from IC50, read-out: TR_FRET EKI_Bcl2 F104I. Put shortly:
as §1

Another test relates to KMS-12-PE Bcl-2 G101V. Put plainly: In vitro cytotoxicity CellTiter-Glo 48 h, KMS-12-PE Bcl-2 G101V. The note with it: for Ratio (G101V/WT): C50 KMS-12-PE Bcl-2 G101V over C50 KMS-12-PE Bcl-2 WT; for IC50: Homo sapiens, KMS-12-PE, 48 h, CellTiter-Glo, C50 = concentration needed to reach 50% of the cellular viability. It is filed as cell-based. In a few lines: as §2
Test [1] has as its system BCL2 G101V. Put plainly: TR-FRET competitive binding assay, BCL2 G101V. The note with it: ratio Ki BCL2 G101V / Ki BCL2 WT. Details: species or system human. Put shortly: as §1
The target of test [2] is BCL2 G101V (Homo sapiens, UniProt P10415, G101V). In words: TR-FRET competitive binding assay, BCL2 G101V. To be noted: BCL2 G101V; Ki determined from IC50; read-out: TR_FRET EKI_Bcl2 G101V. Put shortly:
as §1

pKi: −log10 of the molar value.

Chain of BCLXL WT (Q07817 other isoform, or with tags, fused parts or gaps): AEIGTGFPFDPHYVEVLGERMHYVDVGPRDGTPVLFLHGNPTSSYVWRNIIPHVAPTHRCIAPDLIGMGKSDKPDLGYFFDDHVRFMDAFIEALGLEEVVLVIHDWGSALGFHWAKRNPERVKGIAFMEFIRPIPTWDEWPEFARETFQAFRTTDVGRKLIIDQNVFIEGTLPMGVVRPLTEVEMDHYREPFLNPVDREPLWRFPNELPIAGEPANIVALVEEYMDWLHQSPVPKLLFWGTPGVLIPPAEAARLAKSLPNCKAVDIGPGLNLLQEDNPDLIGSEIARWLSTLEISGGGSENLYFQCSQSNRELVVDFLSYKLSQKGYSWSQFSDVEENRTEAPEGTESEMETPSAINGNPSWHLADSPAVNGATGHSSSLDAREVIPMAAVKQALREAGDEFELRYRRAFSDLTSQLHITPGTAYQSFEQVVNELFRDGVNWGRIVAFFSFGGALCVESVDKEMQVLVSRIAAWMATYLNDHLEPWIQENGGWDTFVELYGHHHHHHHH

What is called IC50 is the point on the concentration scale where inhibition reaches its midpoint. A low value points to higher potency. Turning to `Cc1cc(OCCN2CCOCC2)ccc1CC(=O)N1CCc2cc(-c3cc(C(=O)N(c4ccc(O)cc4)c4cc(C#N)n(C)c4C)c(C)n3C)c(C(=O)N3Cc4ccccc4C[C@H]3CN3CCCCC3)cc2C1` [Example 113, N-(5-cyano-1,2-dimethyl-1H-pyrrol-3-yl)-N-(4-hydroxyphenyl)-1,2-dimethyl-5-[2-(2-{2-methyl-4-[2-(morpholin-4-yl)ethoxy]phenyl}acetyl)-7-[(3S)-3-[(piperidin-1-yl)methyl]-1,2,3,4-tetrahydroisoquinoline-2-carbonyl]-1,2,3,4-tetrahydroisoquinolin-6-yl]-1H-pyrrole-3-carboxamide], the pKi at BCL2 D111A is 9.89; at BCL2 D103Y it was 9.82; on BCLXL WT, 8.44; at BCL2 WT it was 10.30; on BCL2 F104I, 9.57; on BCL2 G101V [2], 9.52. For the same molecule, the IC50 with KMS-12-PE Bcl-2 WT came out at 0.0063 µM; in the test on KMS-12-PE Bcl-2 G101V, 0.0278 µM. The “TR_FRET EKI BCLxL/WT selectivty ratio” value at BCLXL WT came out at 69.2. In addition, the “Ratio (G101V/WT)” value in the test on KMS-12-PE Bcl-2 G101V stood at 4.38. Further, the “TR_FRET EKI G101V/WT selectivty ratio” value in the test on BCL2 G101V [1] came to 5.2.
Take `Cc1c(N(C(=O)c2cc(-c3cc4c(cc3C(=O)N3Cc5ccccc5C[C@H]3CN3CCC(C)(C)C3)CN(C(=O)Cc3ccc(OCCN5CCOCC5)cc3F)CC4)n(C)c2C)c2ccc(O)cc2)cc(C#N)n1C` [Example 146, N-(5-cyano-1,2-dimethylpyrrol-3-yl)-5-(7-{[(3S)-3-[(3,3-dimethylpyrrolidin-1-yl)methyl]-3,4-dihydro-1H-isoquinolin-2-yl]carbonyl}-2-(2-{2-fluoro-4-[2-(morpholin-4-yl)ethoxy]phenyl}acetyl)-3,4-dihydro-1H-isoquinolin-6-yl)-N-(4-hydroxyphenyl)-1,2-dimethylpyrrole-3-carboxamide]: the pKi was 9.82 on BCL2 D111A; 9.92 at BCL2 D103Y; 8.46 at BCLXL WT; 10.40 at BCL2 WT; 9.57 at BCL2 F104I; 9.52 at BCL2 G101V [2]. Also, the IC50 stood at 0.006 µM with KMS-12-PE Bcl-2 WT and 0.0349 µM in the test on KMS-12-PE Bcl-2 G101V. In addition, the “TR_FRET EKI BCLxL/WT selectivty ratio” value on BCLXL WT stood at 81.4. Further, the “Ratio (G101V/WT)” value in the test on KMS-12-PE Bcl-2 G101V is recorded as 5.8167. In the test with BCL2 G101V [1], the “TR_FRET EKI G101V/WT selectivty ratio” value was 7.2.
For `Cc1c(N(C(=O)c2cc(-c3cc4c(cc3C(=O)N3Cc5ccccc5C[C@H]3CN3CCC(F)CC3)CN(C(=O)Cc3ccc(OCCN5CCOCC5)cc3F)CC4)n(C)c2C)c2ccc(O)cc2)cc(C#N)n1C` [Example 86, N-(5-cyano-1,2-dimethyl-1H-pyrrol-3-yl)-5-[2-(2-{2-fluoro-4-[2-(morpholin-4-yl)ethoxy]phenyl}acetyl)-7-[(3S)-3-[(4-fluoropiperidin-1-yl)methyl]-1,2,3,4-tetrahydroisoquinoline-2-carbonyl]-1,2,3,4-tetrahydroisoquinolin-6-yl]-N-(4-hydroxyphenyl)-1,2-dimethyl-1H-pyrrole-3-carboxamide], the pKi at BCL2 D111A was 9.64; on BCL2 D103Y, 9.38; on BCLXL WT, 8.80; at BCL2 WT, 9.89; on BCL2 F104I it was 9.43; on BCL2 G101V [2], 9.30. The IC50 in the test on KMS-12-PE Bcl-2 WT turned out to be 0.0048 µM; in the test on KMS-12-PE Bcl-2 G101V, 0.0249 µM. Also, the “TR_FRET EKI BCLxL/WT selectivty ratio” value at BCLXL WT is reported as 12.3. Also, the “Ratio (G101V/WT)” value with KMS-12-PE Bcl-2 G101V is 5.21. For the same molecule, the “TR_FRET EKI G101V/WT selectivty ratio” value in the test on BCL2 G101V [1] turned out to be 3.9.
Consider `Cc1c(N(C(=O)c2cc(-c3cc4c(cc3C(=O)N3Cc5ccccc5C[C@H]3C)CN(C(=O)Cc3ccc(OCCN(C)C5CC5)cc3)CC4)n3c2CCCC3)c2ccc(O)cc2)cc(C#N)n1C` [Example 35, N-(5-cyano-1,2-dimethyl-pyrrol-3-yl)-3-[2-[2-[4-[2-[cyclopropyl(methyl)amino]ethoxy]phenyl]acetyl]-7-[(3R)-3-methyl-3,4-dihydro-1H-isoquinoline-2-carbonyl]-3,4-dihydro-1H-isoquinolin-6-yl]-N-(4-hydroxyphenyl)-5,6,7,8-tetrahydroindolizine-1-carboxamide], for which the pKi at BCL2 D111A is 9.57; on BCL2 D103Y it was 8.87; on BCLXL WT, 8.59; at BCL2 WT, 9.59; at BCL2 F104I, 9.11; at BCL2 G101V [2], 9.15. The figures for the IC50 in the test with KMS-12-PE Bcl-2 WT and in the test on KMS-12-PE Bcl-2 G101V were 0.0068 µM and 0.0254 µM, respectively. Further, the “TR_FRET EKI BCLxL/WT selectivty ratio” value at BCLXL WT came to 10.0. The “Ratio (G101V/WT)” value with KMS-12-PE Bcl-2 G101V came to 3.75. Moreover, in the test with BCL2 G101V [1], the “TR_FRET EKI G101V/WT selectivty ratio” value amounted to 2.6.
Take `Cc1c(N(C(=O)c2cc(-c3cc4c(cc3C(=O)N3Cc5ccccc5C[C@H]3CN3CCCC[C@@H]3C)CN(C(=O)Cc3ccc(OCCN5CCOCC5)cc3F)CC4)n(C)c2C)c2ccc(O)cc2)cc(C#N)n1C` [Example 125, N-(5-cyano-1,2-dimethyl-1H-pyrrol-3-yl)-5-[2-(2-{2-fluoro-4-[2-(morpholin-4-yl)ethoxy]phenyl}acetyl)-7-[(3S)-3-{[(2S)-2-methylpiperidin-1-yl]methyl}-1,2,3,4-tetrahydroisoquinoline-2-carbonyl]-1,2,3,4-tetrahydroisoquinolin-6-yl]-N-(4-hydroxyphenyl)-1,2-dimethyl-1H-pyrrole-3-carboxamide]: the pKi on BCL2 D111A is 9.89; on BCL2 D103Y, 9.72; on BCLXL WT it was 8.37; on BCL2 WT, 10.15; on BCL2 F104I it was 9.77; at BCL2 G101V [2], 9.40. The figures for the half-inhibitory concentration (IC50) with KMS-12-PE Bcl-2 WT and with KMS-12-PE Bcl-2 G101V were 0.0036 µM and 0.0178 µM, respectively. Besides, on BCLXL WT, the “TR_FRET EKI BCLxL/WT selectivty ratio” value was 61.4. For the same molecule, the “Ratio (G101V/WT)” value in the test with KMS-12-PE Bcl-2 G101V amounted to 4.94. In addition, the “TR_FRET EKI G101V/WT selectivty ratio” value with BCL2 G101V [1] is given as 5.4.
In the case of `Cc1c(N(C(=O)c2cc(-c3cc4c(cc3C(=O)N3Cc5ccccc5C[C@H]3CN3CC5(CC5)C3)CN(C(=O)Cc3ccc(OCCN5CCOCC5)cc3F)CC4)n(C)c2C)c2ccc(O)cc2)cc(C#N)n1C` [Example 145, 5-{7-[(3S)-3-({5-azaspiro[2.3]hexan-5-yl}methyl)-1,2,3,4-tetrahydroisoquinoline-2-carbonyl]-2-(2-{2-fluoro-4-[2-(morpholin-4-yl)ethoxy]phenyl}acetyl)-1,2,3,4-tetrahydroisoquinolin-6-yl}-N-(5-cyano-1,2-dimethyl-1H-pyrrol-3-yl)-N-(4-hydroxyphenyl)-1,2-dimethyl-1H-pyrrole-3-carboxamide], the pKi on BCL2 D111A was 10.15; on BCL2 D103Y, 9.96; at BCLXL WT, 8.96; at BCL2 WT it was 10.52; on BCL2 F104I, 9.85; at BCL2 G101V [2], 9.70. Further, the IC50 with KMS-12-PE Bcl-2 WT is 0.0295 µM; in the test on KMS-12-PE Bcl-2 G101V, 0.154 µM. Moreover, the “TR_FRET EKI BCLxL/WT selectivty ratio” value on BCLXL WT came to 39.3. Besides, in the test on KMS-12-PE Bcl-2 G101V, the “Ratio (G101V/WT)” value turned out to be 5.2203. For the same molecule, the “TR_FRET EKI G101V/WT selectivty ratio” value in the test with BCL2 G101V [1] was determined as 5.4.
Consider `Cc1c(N(C(=O)c2cc(-c3cc4c(cc3C(=O)N3Cc5ccccc5C[C@H]3CN3CCCCC3)CN(C(=O)Cc3ccc(OCCN5C[C@@H](C)O[C@@H](C)C5)cc3)CC4)n(C)c2C)c2ccc(O)cc2)cc(C#N)n1C` [Example 98, N-(5-cyano-1,2-dimethylpyrrol-3-yl)-5-{2-[2-(4-{2-[cis-2,6-dimethylmorpholin-4-yl]ethoxy}phenyl)acetyl]-7-{[(3S)-3-(piperidin-1-ylmethyl)-3,4-dihydro-1H-isoquinolin-2-yl]carbonyl}-3,4-dihydro-1H-isoquinolin-6-yl}-N-(4-hydroxyphenyl)-1,2-dimethylpyrrole-3-carboxamide], for which the pKi at BCL2 D111A was 9.60; on BCL2 D103Y it was 9.62; on BCLXL WT, 8.33; on BCL2 WT, 10.15; at BCL2 F104I, 9.22; at BCL2 G101V [2] it was 9.40. Moreover, the half-maximal inhibitory concentration (IC50) in the test with KMS-12-PE Bcl-2 WT was found to be 0.0087 µM; with KMS-12-PE Bcl-2 G101V, 0.0401 µM. Further, the “TR_FRET EKI BCLxL/WT selectivty ratio” value at BCLXL WT is recorded as 66.2. The “Ratio (G101V/WT)” value with KMS-12-PE Bcl-2 G101V came out at 4.6. In addition, the “TR_FRET EKI G101V/WT selectivty ratio” value in the test on BCL2 G101V [1] is listed as 4.9.

(Values after patent publication US20250179047A1, “5-[7-(3,4-DIHYDRO-1H-ISOQUINOLINE-2-CARBONYL)-1,2,3,4 TETRAHYDROISOQUINOLIN-6-YL]-1H-PYRROLE-3-CARBOXAMIDE DERIVATIVES, PHARMACEUTICAL COMPOSITIONS CONTAINING THEM AND THEIR USES AS PRO-APOPTOTIC AGENTS” (LES LABORATOIRES SERVIER, priority 2022, published 2025).)
